Patent publication US20250339569A1, “CARBONIC ANHYDRASE IX LIGANDS” (priority 2021, published 2025)
Where two headings read alike, the source gives them in different places. Starred links: 1 amine or outer side, 2 acyl side, 3 side chain; linkers in the order of their positions; H or OH if unused. Positions of bridges follow the written chain, without caps; N, C: chain ends. Non-standard residues stand in square brackets, D forms with d. Residues, ends and D or L forms follow the SMILES beside them. ξ: configuration not given here. *: point of attachment. Phe(3-NHCO(CH2)3SO2NH2) = N[C@@H](Cc1cccc(NC(=O)CCCS(N)(=O)=O)c1)C(=O)O; X3 = O=C(O)CN1CCN(CC(=O)O)CCN(CC(=O)NCCCOCCOCCOCCCN*)CCN(CC(=O)O)CC1; DOTA = O=C(O)CN1CCN(CC(=O)O)CCN(CC(=O)*)CCN(CC(=O)O)CC1; X6 = O=C(O)CCC(=O)Nc1cccc(C[C@H](N[*:1])C(=O)[*:2])c1; X19 = O=C([C@H](CS(=O)(=O)Cc1ccccc1)N[*:1])[*:2]; Phe(4-CF3) = N[C@@H](Cc1ccc(C(F)(F)F)cc1)C(=O)O; ξTrp(7-Me) = Cc1cccc2c(CC(N)C(=O)O)c[nH]c12; Phe(4-NH2) = Nc1ccc(C[C@H](N)C(=O)O)cc1; mXylylene = c1cc(C[*:1])cc(C[*:2])c1; NH(4-Cl-benzyl) = Clc1ccc(CN*)cc1; Orn(Me2) = CN(C)CCC[C@H](N)C(=O)O; X2 = O=C(CN1CCC(N[*:1])CC1)[*:2]; X1 = O=C(CN1CCN([*:1])CC1)[*:2]; X17 = NS(=O)(=O)c1cc(C(=O)*)cs1; Suc = O=C(CCC(=O)[*:2])[*:1]; 3Amb = NCc1cccc(C(=O)O)c1; 4Amb = NCc1ccc(C(=O)O)cc1; Dap = NC[C@H](N)C(=O)O

What was measured:
[1] = biological target: T1, CAIX-expressing human HT-29 colorectal cancer cells (Homo sapiens, UniProt Q16790); assay: FACS binding assay (IC50 determination, competition with tracer 3BP-2776 or 3BP-4149); details: 4° C., 1 hour, read-out: pIC50 category (activity) (converted)
T1 construct: CAIX-expressing human HT-29 colorectal cancer cells; host or cells: HT-29 human colorectal cancer cells
Outline: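 HT-29 cells in FACS buffer (PBS, 1% FCS) at 500.000 cells/ml were exposed to compounds competing with a labelled tracer, with biotinylated compounds detected by 1 μg/mL APC-streptavidin for 30 min on ice. APC/Cy5 median fluorescence was read by flow cytometry and IC50 derived by 4PL fit.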

[2] = biological target: T2, human carbonic anhydrase IX (hCAIX-Fc) (Homo sapiens, UniProt Q16790); assay: Surface plasmon resonance assay with hCAIX-Fc; format: binding; details: 25° C.; for t1/2 category (activity): SPR dissociation half-life, hCAIX-Fc; for Kd: SPR, hCAIX-Fc captured, read-out: pKD category (activity) (converted)
T2 construct: purchased SinoBliological (Sino Biological) 10107-H02H

[3] = FACS binding assay, HT-29 cells, competition with tracer 3BP-2776 (10 nM, biotin-labeled)
[4] = FACS binding assay, HT-29 cells, competition with tracer 3BP-4149 (3 nM, Cy5-labeled)

Row | IC50 [1, 3] | t1/2 category (activity) [2] | Kd [2] | IC50 ([1]; FACS competition on HT-29 cells, Tracer ID 3BP-2776 (10 nM, biotin-labeled)) | IC50 [1, 4] | SMILES
1 | < 10 nM | D (t1/2≤2.0 minutes) | < 10 nM |  |  | CC(C)C[C@@H]1NC(=O)[C@H](Cc2c[nH]c3ccccc23)NC(=O)[C@H](CC(=O)O)NC(=O)[C@H]2CCCN2C(=O)[C@H](CCC(=O)O)NC(=O)[C@@H]2CSCc3cccc(c3)CSC[C@@H](C(N)=O)NC(=O)[C@H](CNC(=O)C[C@H](NC(=O)c3cccc(CNC(=O)CN4CCN(CC(=O)O)CCN(CC(=O)O)CCN(CC(=O)O)CC4)c3)C(=O)N2)NC(=O)[C@H](Cc2c[nH]c3ccccc23)NC(=O)[C@H]([C@@H](C)O)NC1=O [3BP-4260] ({DOTA-3Amb}-DCE[dP]DWLTW[Dap]C-NH2; lactam 1-10; linker 2-11 via mXylylene)
2 | < 10 nM | C (t1/2 between 2.1 and 5.0 minutes) | < 10 nM |  |  | CC(C)C[C@@H]1NC(=O)[C@H](Cc2c[nH]c3ccccc23)NC(=O)[C@H](CC(=O)O)NC(=O)[C@H]2CCCN2C(=O)[C@H](CCC(=O)O)NC(=O)[C@@H]2CSCc3cccc(c3)CSC[C@@H](C(N)=O)NC(=O)[C@H](CNC(=O)C[C@H](NC(=O)c3ccc(CNC(=O)CN4CCN(CC(=O)O)CCN(CC(=O)O)CCN(CC(=O)O)CC4)cc3)C(=O)N2)NC(=O)[C@H](Cc2c[nH]c3ccccc23)NC(=O)[C@H]([C@@H](C)O)NC1=O [3BP-4261] ({DOTA-4Amb}-DCE[dP]DWLTW[Dap]C-NH2; lactam 1-10; linker 2-11 via mXylylene)
3 | < 10 nM | B (t1/2 between 5.1 and 15.0 minutes) | < 10 nM |  |  | Cc1cccc2c(CC3NC(=O)[C@H](CC(=O)O)NC(=O)[C@H]4CCCN4C(=O)[C@H](CCC(=O)O)NC(=O)[C@@H](NC(=O)[C@H](Cc4ccc(O)cc4)NC(=O)[C@@H](NC(=O)CN4CCC(NC(=O)CN5CCN(CC(=O)O)CCN(CC(=O)O)CCN(CC(=O)O)CC5)CC4)C(C)C)CSCc4cccc(c4)CSC[C@@H](C(N)=O)NC(=O)[C@H](CO)NC(=O)[C@H](Cc4c[nH]c5ccccc45)NC(=O)[C@H]([C@@H](C)O)NC(=O)[C@H](CC(C)C)NC3=O)c[nH]c12 (stereo partly drawn) [3BP-4158] ({DOTA}-[X2]VYCE[dP]D[ξTrp(7-Me)]LTWSC-NH2; linker 4-13 via mXylylene)
4 | < 10 nM | C (t1/2 between 2.1 and 5.0 minutes) | < 10 nM |  |  | CC(C)C[C@@H]1NC(=O)[C@H](Cc2ccc(C(F)(F)F)cc2)NC(=O)[C@H](CC(=O)O)NC(=O)[C@H]2CCCN2C(=O)[C@H](CCC(=O)O)NC(=O)[C@@H](NC(=O)[C@H](Cc2ccc(O)cc2)NC(=O)[C@@H](NC(=O)CN2CCC(NC(=O)CN3CCN(CC(=O)O)CCN(CC(=O)O)CCN(CC(=O)O)CC3)CC2)C(C)C)CSCc2cccc(c2)CSC[C@@H](C(N)=O)NC(=O)[C@H](CO)NC(=O)[C@H](Cc2c[nH]c3ccccc23)NC(=O)[C@H]([C@@H](C)O)NC1=O [3BP-4139] ({DOTA}-[X2]VYCE[dP]D[Phe(4-CF3)]LTWSC-NH2; linker 4-13 via mXylylene)
5 | < 10 nM | A (t1/2>15.0 minutes) | < 10 nM |  |  | CC(C)C[C@@H]1NC(=O)[C@H](Cc2c[nH]c3ccccc23)NC(=O)[C@H](CS(=O)(=O)Cc2ccccc2)NC(=O)[C@H]2CCCN2C(=O)[C@H](CCC(=O)O)NC(=O)[C@@H](NC(=O)[C@H](Cc2ccc(O)cc2)NC(=O)[C@@H](NC(=O)CN2CCC(NC(=O)CN3CCN(CC(=O)O)CCN(CC(=O)O)CCN(CC(=O)O)CC3)CC2)C(C)C)CSCc2cccc(c2)CSC[C@@H](C(N)=O)NC(=O)[C@H](CO)NC(=O)[C@H](Cc2c[nH]c3ccccc23)NC(=O)[C@H]([C@@H](C)O)NC1=O [3BP-4123] ({DOTA}-[X2]VYCE[dP][X19]WLTWSC-NH2; linker 4-13 via mXylylene)
6 |  | C (t1/2 between 2.1 and 5.0 minutes) | < 10 nM | < 10 nM |  | CC(C)C[C@@H]1NC(=O)[C@H](Cc2c[nH]c3ccccc23)NC(=O)[C@H](CC(=O)O)NC(=O)CNC(=O)[C@H](CCC(=O)O)NC(=O)[C@@H](NC(=O)[C@H](Cc2ccc(O)cc2)NC(=O)[C@@H](NC(=O)CCC(=O)NCCCOCCOCCOCCCNC(=O)CN2CCN(CC(=O)O)CCN(CC(=O)O)CCN(CC(=O)O)CC2)C(C)C)CSCc2cccc(c2)CSC[C@@H](C(N)=O)NC(=O)[C@H](C)NC(=O)[C@H](Cc2c[nH]c3ccccc23)NC(=O)[C@H]([C@@H](C)O)NC1=O [3BP-3272] ({X3-Suc}-VYCEGDWLTWAC-NH2; linker 3-12 via mXylylene)
7 |  | A (t1/2>15.0 minutes) | < 10 nM |  | < 10 nM | CC(C)C[C@@H]1NC(=O)[C@H](Cc2cccc(NC(=O)CCCS(N)(=O)=O)c2)NC(=O)[C@H](CC(=O)O)NC(=O)[C@H]2CCCN2C(=O)[C@H](CCC(=O)O)NC(=O)[C@@H]2CSCc3cccc(c3)CSC[C@@H](C(N)=O)NC(=O)[C@H](CNC(=O)C[C@H](NC(=O)CN3CCN(CC(=O)O)CCN(CC(=O)O)CCN(CC(=O)O)CC3)C(=O)N2)NC(=O)[C@H](Cc2c[nH]c3ccccc23)NC(=O)[C@H]([C@@H](C)O)NC1=O [3BP-4488] ({DOTA}-DCE[dP]D[Phe(3-NHCO(CH2)3SO2NH2)]LTW[Dap]C-NH2; lactam 1-10; linker 2-11 via mXylylene)
8 | < 10 nM | B (t1/2 between 5.1 and 15.0 minutes) | < 10 nM |  |  | CC(C)C[C@@H]1NC(=O)[C@H](Cc2c[nH]c3ccccc23)NC(=O)[C@H](CC(=O)O)NC(=O)[C@H]2CCCN2C(=O)[C@H](CCC(=O)O)NC(=O)[C@@H](NC(=O)[C@H](CO)NC(=O)[C@@H](NC(=O)CN2CCC(NC(=O)CN3CCN(CC(=O)O)CCN(CC(=O)O)CCN(CC(=O)O)CC3)CC2)C(C)C)CSCc2cccc(c2)CSC[C@@H](C(N)=O)NC(=O)[C@H](CO)NC(=O)[C@H](Cc2c[nH]c3ccccc23)NC(=O)[C@H]([C@@H](C)O)NC1=O [3BP-4105] ({DOTA}-[X2]VSCE[dP]DWLTWSC-NH2; linker 4-13 via mXylylene)
9 | 10 to 79.4 nM | A (t1/2>15.0 minutes) | < 10 nM |  |  | CC(C)C[C@@H]1NC(=O)[C@H](Cc2cccc(NC(=O)CCCS(N)(=O)=O)c2)NC(=O)[C@H](CC(=O)O)NC(=O)[C@H]2CCCN2C(=O)[C@H](CCC(=O)O)NC(=O)[C@@H]2CSCc3cccc(c3)CSC[C@@H](C(N)=O)NC(=O)[C@H](CNC(=O)C[C@H](NC(=O)CN3CCN(C(=O)CN4CCN(CC(=O)O)CCN(CC(=O)O)CCN(CC(=O)O)CC4)CC3)C(=O)N2)NC(=O)[C@H](Cc2c[nH]c3ccccc23)NC(=O)[C@H]([C@@H](C)O)NC1=O [3BP-4497] ({DOTA}-[X1]DCE[dP]D[Phe(3-NHCO(CH2)3SO2NH2)]LTW[Dap]C-NH2; lactam 2-11; linker 3-12 via mXylylene)
10 |  | A (t1/2>15.0 minutes) | < 10 nM |  | < 10 nM | CC(C)C[C@@H]1NC(=O)[C@H](Cc2cccc(NC(=O)CCC(=O)O)c2)NC(=O)[C@H](CC(=O)O)NC(=O)[C@H]2CCCN2C(=O)[C@H](CCC(=O)O)NC(=O)[C@@H]2CSCc3cccc(c3)CSC[C@@H](C(N)=O)NC(=O)[C@H](CNC(=O)C[C@H](NC(=O)[C@@H](NC(=O)CN3CCC(NC(=O)CN4CCN(CC(=O)O)CCN(CC(=O)O)CCN(CC(=O)O)CC4)CC3)C(C)C)C(=O)N2)NC(=O)[C@H](Cc2c[nH]c3ccccc23)NC(=O)[C@H]([C@@H](C)O)NC1=O [3BP-4377] ({DOTA}-[X2]VDCE[dP]D[X6]LTW[Dap]C-NH2; lactam 3-12; linker 4-13 via mXylylene)
11 |  | A (t1/2>15.0 minutes) | < 10 nM |  | 10 to 79.4 nM | CC(C)C[C@@H]1NC(=O)[C@H](Cc2c[nH]c3ccccc23)NC(=O)[C@H](CCC(=O)NCc2ccc(Cl)cc2)NC(=O)[C@H]2CCCN2C(=O)[C@H](CCC(=O)O)NC(=O)[C@@H](NC(=O)[C@H](Cc2ccc(O)cc2)NC(=O)[C@@H](NC(=O)CN2CCC(NC(=O)CN3CCN(CC(=O)O)CCN(CC(=O)O)CCN(CC(=O)O)CC3)CC2)C(C)C)CSCc2cccc(c2)CSC[C@@H](C(N)=O)NC(=O)[C@H](CO)NC(=O)[C@H](Cc2c[nH]c3ccccc23)NC(=O)[C@H]([C@@H](C)O)NC1=O [3BP-4334] ({DOTA}-[X2]VYCE[dP]E(NH(4-Cl-benzyl))WLTWSC-NH2; linker 4-13 via mXylylene)
12 |  | A (t1/2>15.0 minutes) | < 10 nM |  | < 10 nM | CC(C)C[C@@H]1NC(=O)[C@H](Cc2ccc(NC(=O)c3csc(S(N)(=O)=O)c3)cc2)NC(=O)[C@H](CC(=O)O)NC(=O)[C@H]2CCCN2C(=O)[C@H](CCC(=O)O)NC(=O)[C@@H](NC(=O)[C@H](Cc2ccc(O)cc2)NC(=O)[C@@H](NC(=O)CN2CCC(NC(=O)CN3CCN(CC(=O)O)CCN(CC(=O)O)CCN(CC(=O)O)CC3)CC2)C(C)C)CSCc2cccc(c2)CSC[C@@H](C(N)=O)NC(=O)[C@H](CO)NC(=O)[C@H](Cc2c[nH]c3ccccc23)NC(=O)[C@H]([C@@H](C)O)NC1=O [3BP-4401] ({DOTA}-[X2]VYCE[dP]D[Phe(4-NH2)](X17)LTWSC-NH2; linker 4-13 via mXylylene)
13 | < 10 nM | B (t1/2 between 5.1 and 15.0 minutes) | < 10 nM |  |  | CC(C)C[C@@H]1NC(=O)[C@H](Cc2c[nH]c3ccccc23)NC(=O)[C@H](CC(=O)O)NC(=O)[C@H]2CCCN2C(=O)[C@H](CCC(=O)O)NC(=O)[C@@H](NC(=O)[C@H](CCCN(C)C)NC(=O)[C@@H](NC(=O)CN2CCC(NC(=O)CN3CCN(CC(=O)O)CCN(CC(=O)O)CCN(CC(=O)O)CC3)CC2)C(C)C)CSCc2cccc(c2)CSC[C@@H](C(N)=O)NC(=O)[C@H](CO)NC(=O)[C@H](Cc2c[nH]c3ccccc23)NC(=O)[C@H]([C@@H](C)O)NC1=O [3BP-4095] ({DOTA}-[X2]V[Orn(Me2)]CE[dP]DWLTWSC-NH2; linker 4-13 via mXylylene)
